# Measured values published in publication PMC8270334, “Design, Sustainable Synthesis and Biological Evaluation of a Novel Dual α2A/5-HT7 Receptor Antagonist with Antidepressant-Like Properties” (Molecules, 2021).
# Key:
# [1] = target: T1, α2B-adrenergic receptor (Homo sapiens, UniProt P18089); assay: intrinsic activity (antagonist) assay, α2B AequoScreen cell line, aequorin calcium mobilization; type: cell-based; settings: AequoScreen cells, ± SEM, two independent experiments
# T1 sequence (P18089 1-450): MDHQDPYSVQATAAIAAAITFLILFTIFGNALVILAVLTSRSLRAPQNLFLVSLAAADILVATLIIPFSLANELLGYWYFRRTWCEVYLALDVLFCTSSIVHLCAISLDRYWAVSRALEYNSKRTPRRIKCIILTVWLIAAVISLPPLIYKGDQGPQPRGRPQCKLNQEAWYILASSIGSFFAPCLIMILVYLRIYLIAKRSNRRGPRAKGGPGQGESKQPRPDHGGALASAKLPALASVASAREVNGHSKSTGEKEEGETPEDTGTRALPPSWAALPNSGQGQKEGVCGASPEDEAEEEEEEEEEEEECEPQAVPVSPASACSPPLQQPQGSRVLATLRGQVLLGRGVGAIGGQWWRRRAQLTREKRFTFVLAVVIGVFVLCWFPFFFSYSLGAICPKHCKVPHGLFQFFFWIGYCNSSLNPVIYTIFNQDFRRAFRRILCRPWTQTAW
# Description: The intrinsic activity assays for the α2B-adrenergic receptor were assessed by luminescence detection of calcium mobilization using the recombinant expressed jellyfish photoprotein, aequorin. Measurements were performed with adrenergic α2B AequoScreen cell line (PekinElmer). The cell density in 96-well format measurements was 5000 cells per well. Cell harvesting, coelenterazine h (Invitrogen, cat. no. C 6780) loading and preparation were done according to instructions presented in the AequoScreen Starter Kit Manual (PerkinElmer). Compound concentration series (50 μL/well) were diluted in 0.1% BSA (Intergen) containing assay buffer (D-MEM/F-12, Invitrogen cat. no. 11039) and prepared in white ½ Area Plate–96 well microplates (PerkinElmer,). The cell suspension was dispensed on the ligands using the POLARstar optima reader injectors. For the antagonist assay, cells were injected (50 μL) into the assay plate with antagonists (50 μL) using the POLARstar optima reader. The antagonist dilution series with four replicates were prepared as instructed in the AequoScreen Starter Kit Manual at the concentrations from 10^–11 to 10^–6 M/L. The agonist used for […] was Oxymetazoline (Sigma, cat. no. O2378), which at a single concentration was injected (50 μL, final concentration EC80) on the preincubated (15–20 min) mixture of cells and antagonist, and the emitted light was recorded for 20 s.
# [2] = target: T2, α2A-adrenergic receptor (Homo sapiens, UniProt P08913); assay: intrinsic activity (antagonist) assay, Tango ADRA2A-bla U2OS DA cells, FRET; type: cell-based; settings: for Kb: antagonist, ADRA2A-bla U2OS DA cells, ± SEM, two independent experiments; for functional selectivity for α2A-AR over α2B-AR subtype: from Kb values α2A vs α2B
# T2 construct: host or cells: U2OS (Tango ADRA2A-bla U2OS DA)
# T2 sequence (P08913 1-465): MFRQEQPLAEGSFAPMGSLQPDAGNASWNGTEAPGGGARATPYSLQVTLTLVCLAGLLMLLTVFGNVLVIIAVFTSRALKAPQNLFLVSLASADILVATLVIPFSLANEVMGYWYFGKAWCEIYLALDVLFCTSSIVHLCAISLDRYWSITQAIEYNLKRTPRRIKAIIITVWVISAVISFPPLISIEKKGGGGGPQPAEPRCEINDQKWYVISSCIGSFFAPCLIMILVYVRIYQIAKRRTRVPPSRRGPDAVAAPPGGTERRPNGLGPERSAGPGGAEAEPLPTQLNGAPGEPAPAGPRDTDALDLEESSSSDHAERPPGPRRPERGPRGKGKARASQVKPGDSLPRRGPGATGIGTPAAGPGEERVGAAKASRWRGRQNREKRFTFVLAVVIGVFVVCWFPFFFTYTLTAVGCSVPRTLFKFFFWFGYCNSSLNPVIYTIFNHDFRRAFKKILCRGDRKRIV
# Description: Intrinsic activity assays for α2A-adrenergic receptor were performed according to the instructions of the manufacturer of the assay kit containing the ready to use cells with stable expression of the α2A-adrenoceptor (Invitrogen, Life Technologies, Waltham, MA, USA). Tango™ ADRA2A-bla U2OS DA cells (10,000 cells/well) were plated in a 384-well format and incubated for 20 h. […] Cells were then loaded with LiveBLAzer™-FRET B/G substrate for 2 h.
# [3] = target: T3, human D2L receptor (Homo sapiens, UniProt P14416); assay: radioligand binding, [3H]-raclopride displacement at D2LR in HEK293 cells; settings: HEK-293 cells, ± SEM; read-out: Ki [nM] D2
# T3 construct: expressed in transfected cells; host or cells: HEK293
# T3 sequence (P14416 whole entry): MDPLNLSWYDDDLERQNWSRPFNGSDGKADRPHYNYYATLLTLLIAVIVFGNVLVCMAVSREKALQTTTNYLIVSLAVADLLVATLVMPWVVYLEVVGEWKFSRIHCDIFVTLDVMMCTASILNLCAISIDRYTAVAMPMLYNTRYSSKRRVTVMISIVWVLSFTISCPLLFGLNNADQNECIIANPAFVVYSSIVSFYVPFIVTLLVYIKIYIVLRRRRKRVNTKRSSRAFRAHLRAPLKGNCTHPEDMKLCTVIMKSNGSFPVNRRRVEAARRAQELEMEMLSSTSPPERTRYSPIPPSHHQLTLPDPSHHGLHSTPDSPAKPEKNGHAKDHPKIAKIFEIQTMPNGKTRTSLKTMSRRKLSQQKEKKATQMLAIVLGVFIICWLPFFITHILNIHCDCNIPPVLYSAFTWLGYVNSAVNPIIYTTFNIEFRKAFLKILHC
# Description: (§1) All experiments were performed using HEK293 cells stably expressing human 5-HT1A, 5-HT6, 5-HT7b, and D2L receptors or CHO-K1 cells with a plasmid containing the human 5-HT2A receptor coding sequence (PerkinElmer, Waltham, MA, USA), according to previously reported procedures. Cells were cultured in 150 cm^2 flasks and, after reaching a 90% confluence, were washed with PBS and the centrifugated (200 g) in PBS containing 0.1 mM EDTA and 1 mM dithiothreitol. Cell pellets were subsequently homogenized (in Ultra Turrax tissue homogenizer) and centrifugated twice (35,000× g for 15 min at 4 °C), with 15 min incubation at 37 °C between the centrifugations. All assays were incubated in dedicated buffers and in a total volume of 200 µL in 96-well microtitre plates for 1 h at 37 °C, except for 5-HT1AR and 5-HT2AR that was incubated for 1 h at room temperature. The process of equilibration is terminated by rapid filtration through Unifilter-96 (PerkinElmer) plates with a 96-well cell harvester and radioactivity retained on the filters was quantified on a Microbeta plate reader (PerkinElmer, USA). For displacement studies, the following assay samples containing the proper radioligand were used: 2.5 nM [^3H]-8-OH-DPAT (PerkinElmer, #NET929001MC) for 5-HT1AR; 1 nM [^3H]-ketanserin (PerkinElmer, #NET791250UC) for 5-HT2AR; 2 nM [^3H]-LSD (PerkinElmer, #NET638250UC) for 5-HT6R; and 0.8 nM [^3H]-5-CT (PerkinElmer, #NET1188U100UC) for 5-HT7R or 2.5 nM [^3H]-raclopride (PerkinElmer, #NET975001MC) for D2LR. Non-specific binding was determined using 10 μM 5-HT for 5-HT1AR and 5-HT7R, 20 μM mianserin for 5-HT2AR, 10 μM methiothepine for 5-HT6R, and 10 μM haloperidol for D2LR. […] Results were expressed as means of at least three separate experiments.
# [4] = target: T4, human 5-HT6 receptor (Homo sapiens, UniProt P50406); assay: radioligand binding, [3H]-LSD displacement at 5-HT6R in HEK293 cells; settings: HEK-293 cells, ± SEM
# T4 construct: expressed in transfected cells; host or cells: HEK293
# T4 sequence (P50406 whole entry): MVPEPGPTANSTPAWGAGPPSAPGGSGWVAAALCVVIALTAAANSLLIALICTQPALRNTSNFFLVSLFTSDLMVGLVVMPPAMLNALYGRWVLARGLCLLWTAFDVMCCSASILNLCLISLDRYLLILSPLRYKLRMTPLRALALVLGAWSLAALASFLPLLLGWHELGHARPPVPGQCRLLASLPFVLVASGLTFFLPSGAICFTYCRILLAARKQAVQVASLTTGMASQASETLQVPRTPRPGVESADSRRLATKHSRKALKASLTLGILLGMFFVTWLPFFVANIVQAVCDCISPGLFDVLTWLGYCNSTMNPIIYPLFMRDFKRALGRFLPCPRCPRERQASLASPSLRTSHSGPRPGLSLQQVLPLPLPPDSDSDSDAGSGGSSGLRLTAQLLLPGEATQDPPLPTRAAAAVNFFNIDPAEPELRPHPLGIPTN
# Description: as §1
# [5] = target: T5, human 5-HT7b receptor (Homo sapiens, UniProt P34969); assay: radioligand binding, [3H]-5-CT displacement at 5-HT7R in HEK293 cells; settings: read-out: Ki [nM] ± SEM 5-HT7
# T5 construct: expressed in transfected cells; host or cells: HEK293
# T5 sequence (P34969 1-432): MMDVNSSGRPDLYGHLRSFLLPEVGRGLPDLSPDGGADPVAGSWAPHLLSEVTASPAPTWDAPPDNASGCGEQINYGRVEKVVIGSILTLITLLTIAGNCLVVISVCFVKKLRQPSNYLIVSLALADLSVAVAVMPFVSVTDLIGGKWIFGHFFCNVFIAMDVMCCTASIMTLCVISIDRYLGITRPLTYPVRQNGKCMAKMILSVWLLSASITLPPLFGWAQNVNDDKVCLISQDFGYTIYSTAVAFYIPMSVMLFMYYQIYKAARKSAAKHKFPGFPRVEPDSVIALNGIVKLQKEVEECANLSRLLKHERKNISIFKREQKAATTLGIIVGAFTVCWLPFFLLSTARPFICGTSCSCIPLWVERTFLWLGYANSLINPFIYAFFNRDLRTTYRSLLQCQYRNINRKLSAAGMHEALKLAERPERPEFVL
# Description: as §1
SMILES,Kb [1] [nM],Kb [2] [nM],functional selectivity for α2A-AR over α2B-AR subtype [2],Ki [3] [nM],Ki [4] [nM],Ki [5] [nM]
"CC1(C)Cc2cccc(OCCN3CCC(NS(=O)(=O)c4cc(Cl)ccc4F)CC3)c2O1 [Compound 8, 5-Chloro-2-fluoro-N-{1-[2-(2,2-dimethyl-2,3-dihydrobenzofuran-7-yloxy)ethyl]piperidin-4-yl}benzenesulfonamide]",142 ± 31,40 ± 11,four,388 ± 37,873 ± 91,30 ± 11
"CC1(C)Cc2cccc(OCCN3CCC(NS(=O)(=O)c4ccc(F)cc4)CC3)c2O1 [Compound 6, 4-Fluoro-N-{1-[2-(2,2-dimethyl-2,3-dihydrobenzofuran-7-yloxy)ethyl]piperidin-4-yl} benzenesulfonamide]",103 ± 25,12 ± 4,up to seven,327 ± 29,839 ± 70,35 ± 22
"CC1(C)Cc2cccc(OCCN3CCC(NS(=O)(=O)c4cncc5ccccc45)CC3)c2O1 [Compound 13, 4-Isoquinoline-N-{1-[2-(2,2-dimethyl-2,3-dihydrobenzofuran-7-yloxy)ethyl]piperidin-4-yl}sulfonamide]",27 ± 13,31 ± 8,did not show any preference,326 ± 25,1120 ± 114,91 ± 25
